Assay results from patent US20200017467A1, “NOVEL TRIAZOLE DERIVATIVES” (BAYER CROPSCIENCE AKTIENGESELLSCHAFT, priority 2017, published 2020).

Columns and labels:
[1] = tested on: Sphaerotheca fuliginea; experiment: In vivo preventive test on Sphaerotheca fuliginea (powdery mildew on cucurbits); conditions: Podosphaera fuliginea, 360 h; 500 ppm of active ingredient; gherkin, preventive spray, evaluated 15 days after inoculation; read-out: efficacy
Method: Example C: In Vivo Preventive Test on Sphaerotheca fuliginea (Powdery Mildew on Cucurbits) [table] The active ingredients were made soluble and homogenized in a mixture of dimethyl sulfoxide/acetone//Tween® 80 and then diluted in water to the desired concentration. Young plants of gherkin were treated by spraying the active ingredient prepared as described above. Control plants were treated only with an aqueous solution of acetone/dimethyl sulfoxide/Tween® 80. After 24 hours, the plants were contaminated by spraying the leaves with an aqueous suspension of Sphaerotheca fuliginea spores. The contaminated gherkin plants were incubated for 72 hours at 18° C. and at 100% relative humidity and then for 12 days at 20° C. and at 70-80% relative humidity. The test was evaluated 15 days after the inoculation. 0% means an efficacy which corresponds to that of the control plants while an efficacy of 100% means that no disease was observed.

[2] = tested on: Uromyces appendiculatus; experiment: In vivo preventive test on Uromyces appendiculatus (bean rust); conditions: 264 h, 500 ppm of active ingredient, preventive spray, evaluated 11 days after inoculation, read-out: efficacy
Method: Example D: In Vivo Preventive Test on Uromyces appendiculatus (Bean Rust) [table] The active ingredients were made soluble and homogenized in a mixture of dimethyl sulfoxide/acetone//Tween® 80 and then diluted in water to the desired concentration. Young plants of bean were treated by spraying the active ingredient prepared as described above. Control plants were treated only with an aqueous solution of acetone/dimethyl sulfoxide/Tween® 80. After 24 hours, the plants were contaminated by spraying the leaves with an aqueous suspension of Uromyces appendiculatus spores. The contaminated bean plants were incubated for 24 hours at 20° C. and at 100% relative humidity and then for 10 days at 20° C. and at 70-80% relative humidity. The test was evaluated 11 days after the inoculation. 0% means an efficacy which corresponds to that of the control plants while an efficacy of 100% means that no disease was observed.

[3] = Log P by HPLC on reversed phase columns (EEC directive 79/831 Annex V.A8); assay type: physicochemical; conditions: reversed phase HPLC columns; method [a]: LC-UV, acidic range, 0.1% formic acid in water and acetonitrile; compounds of formula (I)
Method: Log P values: Measurement of Log P values was performed according to EEC directive 79/831 Annex V.A8 by HPLC (High Performance Liquid Chromatography) on reversed phase columns with the following methods: • ^[a] Log P value is determined by measurement of LC-UV, in an acidic range, with 0.1% formic acid in water and acetonitrile as eluent (linear gradient from 10% acetonitrile to 95% acetonitrile). • ^[b] Log P value is determined by measurement of LC-UV, in a neutral range, with 0.001 molar ammonium acetate solution in water and acetonitrile as eluent (linear gradient from 10% acetonitrile to 95% acetonitrile). • ^[c] Log P value is determined by measurement of LC-UV, in an acidic range, with 0.1% phosphoric acid and acetonitrile as eluent (linear gradient from 10% acetonitrile to 95% acetonitrile). If more than one Log P value is available within the same method, all the values are given and separated by “+”. Calibration was done with straight-chain alkan2-ones (with 3 to 16 carbon atoms) with known Log P values (measurement of Log P values using retention times with linear interpolation between successive alkanones). Lambda-max-values were determined using UV-spectra from 200 nm to 400 nm and the peak values of the chromatographic signals.

[4] = tested on: Septoria tritici; experiment: Example F-C: in vivo 5 days preventive Septoria tritici test (wheat); conditions: Zymoseptoria tritici, 504 h, inoculated 5 days after spraying, evaluated 21 days after inoculation, read-out: Efficacy in % Example F-C
Method: Example F: In Vivo Septoria tritici Test (Wheat); Comparison of Pyridinyloxy-Pyridyl Compounds According to the Invention Vs. Compounds Known from WO-A 2010/146116 [table] To produce a suitable preparation of active compound, 1 part by weight of active compound or active compound combination is mixed with the stated amounts of solvent and emulsifier, and the concentrate is diluted with water to the desired concentration. Example F-C: In Vivo 5 Days Preventive Septoria tritici Test (Wheat) To test for preventive and long-lasting activity, young plants are sprayed with a preparation of active compound or active compound combination at the stated rate of application. After the spray coating has been dried, the plants are placed in the greenhouse at a temperature of approximately 15° C. and a relative atmospheric humidity of approximately 80%. 5 days later the plants are sprayed with a spore suspension of Septoria tritici. The plants remain for 48 hours in an incubation cabinet at approximately 20° C. and a relative atmospheric humidity of approximately 100% and afterwards for 60 hours at approximately 15° C. in a translucent incubation cabinet at a relative atmospheric humidity of approximately 100%. Then the plants are placed in the greenhouse at a temperature of approximately 15° C. and a relative atmospheric humidity of approximately 80%. The test is evaluated 21 days after the inoculation. 0% means an efficacy which corresponds to that of the untreated control, while an efficacy of 100% means that no disease is observed.

[5] = tested on: Septoria tritici; experiment: In vivo preventive test on Septoria tritici (leaf spot on wheat); conditions: Zymoseptoria tritici, 576 h, 500 ppm of active ingredient, preventive spray, evaluated 24 days after inoculation, read-out: efficacy
Method: Example B: In Vivo Preventive Test on Septoria tritici (Leaf Spot on Wheat) [table] The active ingredients were made soluble and homogenized in a mixture of dimethyl sulfoxide/acetone//Tween® 80 and then diluted in water to the desired concentration. Young plants of wheat were treated by spraying the active ingredient prepared as described above. Control plants were treated only with an aqueous solution of acetone/dimethyl sulfoxide/Tween® 80. After 24 hours, the plants were contaminated by spraying the leaves with an aqueous suspension of Septoria tritici spores. The contaminated wheat plants were incubated for 72 hours at 18° C. and at 100% relative humidity and then for 21 days at 20° C. and at 90% relative humidity. The test was evaluated 24 days after the inoculation. 0% means an efficacy which corresponds to that of the control plants while an efficacy of 100% means that no disease was observed.

SMILES	pest or weed control at 500 ppm [1] [%]	pest or weed control at 500 ppm [2] [%]	chromatographic logP [3]	pest or weed control at 500 ppm [4] [%]	pest or weed control at 500 ppm [5] [%]
CC(O)(Cn1cncn1)c1ccc(Oc2ccc(Br)nc2)nc1C(F)(F)F (centres unmarked) [I-01, 2-[6-[(6-bromo-3-pyridyl)oxy]-2-(trifluoromethyl)-3-pyridyl]-1-(1,2,4-triazol-1-yl)propan-2-ol]	90 to 100	80 to 89	2.25	100	90 to 100
CC(O)(Cn1cncn1)c1ccc(Oc2ccc(C(F)(F)F)nc2)nc1C(F)(F)F (centres unmarked) [I-02, 1-(1,2,4-triazol-1-yl)-2-[2-(trifluoromethyl)-6-[[6-(trifluoromethyl)-3-pyridyl]oxy]-3-pyridyl]propan-2-ol]	90 to 100	90 to 100	2.56	100	90 to 100
CC(O)(Cn1cncn1)c1cnc(Oc2ccc(C(F)(F)F)nc2)cc1C(F)(F)F (centres unmarked) [I-04]	90 to 100	90 to 100	2.53		90 to 100
CC(O)(Cn1cncn1)c1ccc(Oc2ccc(Cl)nc2)nc1C(F)(F)F (centres unmarked) [I-05]	90 to 100	90 to 100	2.21	63	90 to 100
CC(O)(Cn1cncn1)c1cnc(Oc2ccc(Cl)nc2)cc1C(F)(F)F (centres unmarked) [I-06, 2-[6-[(6-chloro-3-pyridyl)oxy]-4-(trifluoromethyl)-3-pyridyl]-1-(1,2,4-triazol-1-yl)propan-2-ol]	90 to 100	90 to 100	2.18	88	90 to 100
CC(O)(Cn1cncn1)c1cnc(Oc2ccc(Br)nc2)cc1C(F)(F)F (centres unmarked) [I-07]	90 to 100	70 to 79	2.3	100	90 to 100
OC(Cn1cncn1)c1ccc(Oc2ccc(C(F)(F)F)nc2)nc1C(F)(F)F (centres unmarked) [I-09]	90 to 100	90 to 100	2.2	100	90 to 100
OC(Cn1cncn1)c1cnc(Oc2ccc(Br)nc2)cc1C(F)(F)F (centres unmarked) [I-13]	90 to 100		2.13	100	90 to 100
